Measurements taken from ChEMBL document CHEMBL5465560, “Selectivity Literature for EUbOPEN Chemogenomic Library” (2024).

Key:
[1] = biological target: Serine/threonine-protein kinase 33 (Homo sapiens) (UniProt Q9BYT3); assay: Selectivity interaction (Ambit KINOMEscan and KiNATiv profiling in Jurkat cells) EUB0000090b STK33; type: cell-based; details: at 1 µM
[2] = biological target: Serine/threonine-protein kinase 26 (Homo sapiens, UniProt Q9P289); assay: Selectivity interaction (Kinase panel (DSF assay)) EUB0001559a STK26
[3] = test system: eIF-2-alpha kinase GCN2 (Homo sapiens), Q9P2K8 [S808G]; assay: Selectivity interaction (KinomeScan (DiscoverX)) EUB0000655a EIF2AK4; details: at 10 µM
[4] = test system: Epidermal growth factor receptor (Homo sapiens), P00533 [UNDEFINED MUTATION]; assay: Selectivity interaction (KinomeScan (DiscoverX)) EUB0001079a EGFR; details: at 1 µM
Epidermal growth factor receptor (Homo sapiens), P00533 [UNDEFINED MUTATION], sequence (P00533 whole entry, looked up, change not shown): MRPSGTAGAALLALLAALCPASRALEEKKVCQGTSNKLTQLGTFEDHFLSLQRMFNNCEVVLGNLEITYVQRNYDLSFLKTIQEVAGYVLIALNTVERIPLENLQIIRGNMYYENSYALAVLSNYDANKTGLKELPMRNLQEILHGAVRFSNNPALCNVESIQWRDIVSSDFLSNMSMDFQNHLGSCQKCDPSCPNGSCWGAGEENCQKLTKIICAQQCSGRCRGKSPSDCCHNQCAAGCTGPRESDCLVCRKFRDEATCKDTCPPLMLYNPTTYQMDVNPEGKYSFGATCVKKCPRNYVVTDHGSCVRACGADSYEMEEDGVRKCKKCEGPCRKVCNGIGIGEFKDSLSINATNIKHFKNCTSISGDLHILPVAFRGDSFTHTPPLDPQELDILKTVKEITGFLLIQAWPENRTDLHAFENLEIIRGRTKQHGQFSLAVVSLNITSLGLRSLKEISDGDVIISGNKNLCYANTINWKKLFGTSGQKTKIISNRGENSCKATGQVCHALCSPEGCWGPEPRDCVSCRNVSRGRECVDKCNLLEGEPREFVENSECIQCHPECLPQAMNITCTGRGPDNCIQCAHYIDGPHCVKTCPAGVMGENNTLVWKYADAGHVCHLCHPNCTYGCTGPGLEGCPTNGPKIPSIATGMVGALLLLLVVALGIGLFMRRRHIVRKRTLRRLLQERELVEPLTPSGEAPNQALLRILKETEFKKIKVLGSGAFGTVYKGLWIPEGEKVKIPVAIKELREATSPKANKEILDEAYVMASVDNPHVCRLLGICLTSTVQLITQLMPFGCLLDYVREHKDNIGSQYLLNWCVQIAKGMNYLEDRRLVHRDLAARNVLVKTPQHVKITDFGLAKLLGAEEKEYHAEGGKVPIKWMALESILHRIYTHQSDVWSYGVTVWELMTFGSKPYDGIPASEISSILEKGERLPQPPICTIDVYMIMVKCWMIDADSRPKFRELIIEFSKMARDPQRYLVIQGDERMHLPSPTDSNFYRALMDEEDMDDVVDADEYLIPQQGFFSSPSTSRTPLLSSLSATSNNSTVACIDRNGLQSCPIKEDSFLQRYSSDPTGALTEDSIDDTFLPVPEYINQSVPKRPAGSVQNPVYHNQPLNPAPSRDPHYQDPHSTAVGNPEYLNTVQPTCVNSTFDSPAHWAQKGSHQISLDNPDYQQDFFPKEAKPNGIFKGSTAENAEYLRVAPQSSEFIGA

[5] = biological target: Mitogen-activated protein kinase kinase kinase 10 (Homo sapiens) (UniProt Q02779); assay: Selectivity interaction (KinomeScan (DiscoverX)) EUB0001079a MAP3K10; details: at 1 µM
Mitogen-activated protein kinase kinase kinase 10 (Homo sapiens), sequence (Q02779 whole entry, looked up): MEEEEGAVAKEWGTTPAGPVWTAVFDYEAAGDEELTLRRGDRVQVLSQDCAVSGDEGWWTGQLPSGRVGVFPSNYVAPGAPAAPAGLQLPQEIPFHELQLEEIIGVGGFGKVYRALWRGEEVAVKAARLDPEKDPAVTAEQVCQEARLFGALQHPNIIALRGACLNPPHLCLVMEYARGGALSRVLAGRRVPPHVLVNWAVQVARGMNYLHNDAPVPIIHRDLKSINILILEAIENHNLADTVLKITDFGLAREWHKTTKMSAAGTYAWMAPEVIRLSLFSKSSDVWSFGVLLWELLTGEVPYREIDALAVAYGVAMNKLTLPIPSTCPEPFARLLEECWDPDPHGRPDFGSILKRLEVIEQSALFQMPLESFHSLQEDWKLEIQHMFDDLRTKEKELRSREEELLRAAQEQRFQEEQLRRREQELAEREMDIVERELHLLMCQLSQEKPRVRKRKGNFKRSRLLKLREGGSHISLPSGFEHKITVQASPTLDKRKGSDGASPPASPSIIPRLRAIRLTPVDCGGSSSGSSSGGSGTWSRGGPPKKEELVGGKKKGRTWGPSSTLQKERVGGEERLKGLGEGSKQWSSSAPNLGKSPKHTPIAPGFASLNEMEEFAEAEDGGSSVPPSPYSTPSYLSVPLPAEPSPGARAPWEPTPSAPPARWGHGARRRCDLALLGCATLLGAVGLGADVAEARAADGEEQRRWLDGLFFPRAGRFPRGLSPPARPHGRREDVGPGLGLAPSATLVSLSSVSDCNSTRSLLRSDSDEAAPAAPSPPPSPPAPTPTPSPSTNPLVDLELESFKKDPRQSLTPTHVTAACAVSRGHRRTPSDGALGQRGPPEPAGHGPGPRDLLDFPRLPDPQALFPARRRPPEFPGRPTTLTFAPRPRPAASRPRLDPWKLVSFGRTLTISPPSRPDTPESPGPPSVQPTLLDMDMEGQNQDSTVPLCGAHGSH

[6] = biological target: Serine/threonine-protein kinase B-raf (Homo sapiens) (UniProt P15056); assay: Selectivity interaction (SelectScreen profiling (Invitrogen)) EUB0000607a BRAF; details: at 2 µM
[7] = biological target: T1, MAP/microtubule affinity-regulating kinase 4 (Homo sapiens) (UniProt Q96L34); assay: Selectivity interaction (Kinase panel (DSF assay)) EUB0001558a MARK4
T1 sequence (whole entry): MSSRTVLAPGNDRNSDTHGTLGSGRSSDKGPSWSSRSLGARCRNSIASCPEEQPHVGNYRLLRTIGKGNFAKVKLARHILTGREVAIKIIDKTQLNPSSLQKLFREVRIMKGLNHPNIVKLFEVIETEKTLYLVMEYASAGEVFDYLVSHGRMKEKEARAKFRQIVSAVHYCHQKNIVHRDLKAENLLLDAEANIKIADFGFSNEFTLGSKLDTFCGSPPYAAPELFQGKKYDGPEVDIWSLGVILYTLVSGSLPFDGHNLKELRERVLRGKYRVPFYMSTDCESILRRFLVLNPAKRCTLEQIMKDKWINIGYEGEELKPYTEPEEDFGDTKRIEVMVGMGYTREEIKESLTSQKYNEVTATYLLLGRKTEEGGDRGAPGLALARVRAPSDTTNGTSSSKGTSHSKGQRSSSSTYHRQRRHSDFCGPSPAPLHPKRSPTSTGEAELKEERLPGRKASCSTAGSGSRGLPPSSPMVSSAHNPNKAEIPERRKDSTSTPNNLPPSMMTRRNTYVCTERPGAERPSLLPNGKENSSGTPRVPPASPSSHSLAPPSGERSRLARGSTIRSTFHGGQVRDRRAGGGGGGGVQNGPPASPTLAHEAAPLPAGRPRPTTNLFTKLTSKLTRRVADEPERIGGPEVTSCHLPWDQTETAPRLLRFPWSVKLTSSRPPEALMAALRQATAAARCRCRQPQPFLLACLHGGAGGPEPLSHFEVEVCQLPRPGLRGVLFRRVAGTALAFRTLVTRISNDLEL

[8] = biological target: T2, Serine/threonine-protein kinase RIO3 (Homo sapiens) (UniProt O14730); assay: Selectivity interaction (KinomeScan (DiscoverX)) EUB0000045b RIOK3
T2 sequence (whole entry): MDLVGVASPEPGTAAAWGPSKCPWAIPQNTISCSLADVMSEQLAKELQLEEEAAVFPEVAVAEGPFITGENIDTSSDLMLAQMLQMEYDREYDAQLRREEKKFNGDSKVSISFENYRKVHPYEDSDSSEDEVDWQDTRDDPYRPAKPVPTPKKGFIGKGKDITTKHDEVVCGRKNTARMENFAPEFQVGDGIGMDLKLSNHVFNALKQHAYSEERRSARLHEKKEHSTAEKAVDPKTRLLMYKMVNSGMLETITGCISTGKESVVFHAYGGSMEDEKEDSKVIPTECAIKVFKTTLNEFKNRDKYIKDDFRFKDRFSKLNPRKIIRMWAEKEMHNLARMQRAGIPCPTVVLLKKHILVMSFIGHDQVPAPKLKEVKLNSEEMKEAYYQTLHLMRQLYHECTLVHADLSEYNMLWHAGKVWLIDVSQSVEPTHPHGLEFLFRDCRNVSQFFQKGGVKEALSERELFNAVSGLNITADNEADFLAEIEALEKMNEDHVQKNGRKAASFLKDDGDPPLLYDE

[9] = biological target: Cyclin-dependent kinase 13 (Homo sapiens, UniProt Q14004); assay: Selectivity interaction (KinomeScan (DiscoverX)) EUB0000595a CDK13; details: at 10 µM
[10] = biological target: 5'-AMP-activated protein kinase catalytic subunit alpha-1 (Homo sapiens, UniProt Q13131); assay: Selectivity interaction (ActivX KiNativ screen (kinase selectivity in THP-1 cell lysates)) EUB0000639a PRKAA1; type: subcellular; details: lysate, at 5 µM
[11] = biological target: Histone-lysine N-methyltransferase 2C (Homo sapiens) (UniProt Q8NEZ4); assay: Selectivity interaction (Transferase panel (protein, RNA, and DNA methyltransferases. and EP300 (acetyltransferase))) EUB0000270b MLL3; details: at 10 µM
[12] = test system: RAF proto-oncogene serine/threonine-protein kinase (Homo sapiens), P04049 [Y340D,Y341D]; assay: Selectivity interaction (ProQinase) EUB0000171b RAF1
RAF proto-oncogene serine/threonine-protein kinase (Homo sapiens), P04049 [Y340D,Y341D], sequence (P04049 whole entry Y340D/Y341D): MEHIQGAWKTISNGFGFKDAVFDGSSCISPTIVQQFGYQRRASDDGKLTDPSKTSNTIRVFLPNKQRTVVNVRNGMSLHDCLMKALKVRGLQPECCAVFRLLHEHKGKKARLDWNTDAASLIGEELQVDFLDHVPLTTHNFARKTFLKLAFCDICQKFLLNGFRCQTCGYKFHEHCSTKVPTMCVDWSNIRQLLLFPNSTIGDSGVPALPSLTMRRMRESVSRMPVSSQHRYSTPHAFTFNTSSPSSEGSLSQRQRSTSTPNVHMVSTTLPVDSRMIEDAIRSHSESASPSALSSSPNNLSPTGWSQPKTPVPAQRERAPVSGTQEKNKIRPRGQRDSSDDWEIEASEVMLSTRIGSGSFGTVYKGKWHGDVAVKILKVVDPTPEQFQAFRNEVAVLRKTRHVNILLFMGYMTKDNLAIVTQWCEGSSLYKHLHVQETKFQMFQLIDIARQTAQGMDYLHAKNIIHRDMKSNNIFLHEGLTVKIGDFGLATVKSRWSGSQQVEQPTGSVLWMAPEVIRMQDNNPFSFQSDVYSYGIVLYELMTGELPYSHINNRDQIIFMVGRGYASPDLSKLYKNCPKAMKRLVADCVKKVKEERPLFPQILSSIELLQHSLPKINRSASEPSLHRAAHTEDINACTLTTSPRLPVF

[13] = biological target: Mitogen-activated protein kinase 8 (Homo sapiens, UniProt P45983); assay: Selectivity interaction (ProQinase) EUB0000171b MAPK8
Mitogen-activated protein kinase 8, sequence (P45983 whole entry): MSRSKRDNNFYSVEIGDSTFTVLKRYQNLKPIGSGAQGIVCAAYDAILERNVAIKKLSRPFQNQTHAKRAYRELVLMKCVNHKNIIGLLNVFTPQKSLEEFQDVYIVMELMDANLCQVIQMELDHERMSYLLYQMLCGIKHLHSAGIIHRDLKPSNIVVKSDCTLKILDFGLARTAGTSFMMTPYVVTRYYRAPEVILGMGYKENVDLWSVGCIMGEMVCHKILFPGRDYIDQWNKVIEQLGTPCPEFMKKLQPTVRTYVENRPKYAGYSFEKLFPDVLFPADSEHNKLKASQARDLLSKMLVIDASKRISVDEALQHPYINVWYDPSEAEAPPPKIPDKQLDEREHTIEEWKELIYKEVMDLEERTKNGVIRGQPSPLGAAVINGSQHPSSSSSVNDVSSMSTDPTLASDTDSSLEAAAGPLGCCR

[14] = biological target: Receptor tyrosine-protein kinase erbB-3 (Homo sapiens) (UniProt P21860); assay: Selectivity interaction (KinomeScan (DiscoverX)) EUB0000092b ERBB3; details: at 10 µM
Receptor tyrosine-protein kinase erbB-3 (Homo sapiens), sequence (P21860 whole entry): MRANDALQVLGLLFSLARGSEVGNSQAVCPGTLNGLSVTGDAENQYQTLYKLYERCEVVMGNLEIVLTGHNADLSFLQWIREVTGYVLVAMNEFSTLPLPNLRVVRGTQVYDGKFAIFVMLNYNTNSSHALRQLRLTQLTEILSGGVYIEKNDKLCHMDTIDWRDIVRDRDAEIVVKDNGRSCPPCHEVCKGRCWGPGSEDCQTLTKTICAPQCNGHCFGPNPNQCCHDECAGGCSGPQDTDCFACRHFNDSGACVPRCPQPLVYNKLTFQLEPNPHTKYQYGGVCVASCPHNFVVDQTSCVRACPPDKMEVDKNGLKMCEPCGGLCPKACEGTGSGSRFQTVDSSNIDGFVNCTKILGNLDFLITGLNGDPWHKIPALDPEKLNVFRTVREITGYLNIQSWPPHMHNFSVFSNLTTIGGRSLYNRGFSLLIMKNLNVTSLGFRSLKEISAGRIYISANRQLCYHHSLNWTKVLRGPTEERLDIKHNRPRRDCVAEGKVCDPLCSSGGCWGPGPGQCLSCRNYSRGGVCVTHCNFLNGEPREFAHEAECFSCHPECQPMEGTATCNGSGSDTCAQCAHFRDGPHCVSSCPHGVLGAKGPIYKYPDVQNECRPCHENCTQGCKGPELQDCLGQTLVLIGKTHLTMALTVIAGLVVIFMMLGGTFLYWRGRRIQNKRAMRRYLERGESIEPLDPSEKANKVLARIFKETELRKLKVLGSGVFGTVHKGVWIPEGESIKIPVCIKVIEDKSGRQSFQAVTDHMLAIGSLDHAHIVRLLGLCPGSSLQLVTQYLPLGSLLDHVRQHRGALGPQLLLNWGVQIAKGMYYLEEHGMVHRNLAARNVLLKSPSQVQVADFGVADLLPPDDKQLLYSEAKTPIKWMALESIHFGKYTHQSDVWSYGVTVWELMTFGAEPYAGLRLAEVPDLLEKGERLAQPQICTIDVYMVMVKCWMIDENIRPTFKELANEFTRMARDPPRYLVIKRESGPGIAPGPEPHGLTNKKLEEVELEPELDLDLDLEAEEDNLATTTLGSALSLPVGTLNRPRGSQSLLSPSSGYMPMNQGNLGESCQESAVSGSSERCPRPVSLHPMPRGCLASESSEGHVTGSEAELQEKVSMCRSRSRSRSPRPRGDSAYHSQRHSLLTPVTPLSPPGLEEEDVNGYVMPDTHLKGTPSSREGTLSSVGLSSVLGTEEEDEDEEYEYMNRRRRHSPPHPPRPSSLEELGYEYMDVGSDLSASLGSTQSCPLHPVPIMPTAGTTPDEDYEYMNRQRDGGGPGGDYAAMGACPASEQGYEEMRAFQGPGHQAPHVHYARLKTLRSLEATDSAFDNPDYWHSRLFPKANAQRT

[15] = biological target: Tyrosine-protein kinase FRK (Homo sapiens) (UniProt P42685); assay: Selectivity interaction (KinomeScan (DiscoverX)) EUB0000695a FRK; details: at 100 nM
Tyrosine-protein kinase FRK (Homo sapiens), sequence (P42685 whole entry): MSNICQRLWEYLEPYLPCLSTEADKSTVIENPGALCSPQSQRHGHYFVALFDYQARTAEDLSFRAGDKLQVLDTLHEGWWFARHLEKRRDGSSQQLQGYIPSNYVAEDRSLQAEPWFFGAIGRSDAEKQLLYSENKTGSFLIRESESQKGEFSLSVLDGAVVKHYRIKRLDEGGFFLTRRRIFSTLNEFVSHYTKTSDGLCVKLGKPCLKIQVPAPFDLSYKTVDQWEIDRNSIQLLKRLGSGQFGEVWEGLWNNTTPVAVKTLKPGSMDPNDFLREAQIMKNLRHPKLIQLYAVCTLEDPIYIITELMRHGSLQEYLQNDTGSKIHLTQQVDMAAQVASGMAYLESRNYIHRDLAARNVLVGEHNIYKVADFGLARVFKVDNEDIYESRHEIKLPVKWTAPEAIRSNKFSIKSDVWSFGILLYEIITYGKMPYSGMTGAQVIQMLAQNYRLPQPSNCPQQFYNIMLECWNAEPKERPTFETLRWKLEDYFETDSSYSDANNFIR

Q: With `CN(C)C/C=C/C(=O)Nc1ccc(C(=O)N2CCCC(Nc3ncc(Cl)c(-c4c[nH]c5ccccc45)n3)C2)cc1` (stereo not drawn) as the compound, how does the % of control [1] read?
A: The % of control was 90%.

Q: With `CN(C(=O)c1cnn2cccnc12)c1cc2c(cc1N1CCOCC1)C(=O)N(C[C@@H](F)C(C)(C)O)C2` as the compound, how does the dTM [2] read?
A: Its dTM is 0.5 K.

Q: Which % of control [3] does the source give for `CN(C)CCOc1ccc(-c2nc(-c3ccncc3)c(-c3ccc4c(c3)CC/C4=N\O)[nH]2)cc1` here?
A: Its % of control is 97%.

Q: `Nc1cnc(N2CCc3cc(S(=O)(=O)Nc4c(F)cc(Cl)cc4F)cc(N4CCCC4=O)c32)nc1` [TP-020n] was tested. Which % of control [4] did it give?
A: Its % of control is 100%.

Q: What about the % of control [5] of the same compound?
A: The % of control was 75%.

Q: For `CNC(=O)Nc1ccc(-c2nc(N3CC4CCC(C3)O4)c3cnn(C4CCC5(CC4)OCCO5)c3n2)cc1`, which % of inhibition [6] is on record?
A: Its % of inhibition is -16%.

Q: For `CC(C)(O)[C@H](F)CN1Cc2cc(NC(=O)c3cnn4cccnc34)c(N3CCOCC3)cc2C1=O`, which dTM [7] is on record?
A: Its dTM is 1.6 K.

Q: For `C=CC(=O)Nc1cc(-n2c(=O)ccc3cnc4ccc(-c5ccc(NS(C)(=O)=O)cc5)cc4c32)ccc1C`, which % of control ([8]; at 1 µM) is on record?
A: Its % of control is 55%.

Q: And the % of control ([8]; at 10 µM)?
A: Its % of control is 60%.

Q: For `COCC(=O)NC/C=C/c1ccc2ncnc(Nc3ccc(Oc4ccc(C)nc4)c(C)c3)c2c1` [CP-724714], which % of control [9] is on record?
A: Its % of control is 100%.

Q: How did the % of inhibition [10] turn out when `CC[C@@H]1[C@H](F)C(=O)N[C@@H]1COc1nccc2cc(C(N)=O)c(OC)cc12` [ZIMLOVISERTIB] was run?
A: Its % of inhibition is 21.9%.

Q: With `Cc1cc(CN)cc(C)c1-c1ncn(C)c1-c1cncn1C` as the compound, how does the % activity [11] read?
A: The % activity was greater than 80%.

Q: Which results are given for `C=CC(=O)Nc1cccc(C(=O)Nc2ccc(Nc3cc(-c4[nH]c(SC)nc4C)ccn3)cc2)c1`?
A: % of control ([12]; at 1 µM): 96%; % of control ([12]; at 5 µM): 92%; % of control ([13]; at 1 µM): 5%; % of control ([13]; at 5 µM): 1%

Q: With `CCC(=O)N1CCN(c2ccc(-n3c(=O)ccc4cnc5ccc(-c6cnc7ccccc7c6)cc5c43)cc2C(F)(F)F)CC1` as the compound, how does the % of control [14] read?
A: Its % of control is 44%.

Q: For `Cc1cc(F)c(C(=O)Nc2cccc(-c3nncn3C(C)C)n2)cc1-n1cnc(C2CC2)c1`, which % of control [15] is on record?
A: The % of control was 100%.
